Experimental data from the Kinase Knowledgebase extract (Sharma et al. 2016).

Molecular target: EGFR (UniProt P00533)
Sequence (P00533 whole entry, looked up): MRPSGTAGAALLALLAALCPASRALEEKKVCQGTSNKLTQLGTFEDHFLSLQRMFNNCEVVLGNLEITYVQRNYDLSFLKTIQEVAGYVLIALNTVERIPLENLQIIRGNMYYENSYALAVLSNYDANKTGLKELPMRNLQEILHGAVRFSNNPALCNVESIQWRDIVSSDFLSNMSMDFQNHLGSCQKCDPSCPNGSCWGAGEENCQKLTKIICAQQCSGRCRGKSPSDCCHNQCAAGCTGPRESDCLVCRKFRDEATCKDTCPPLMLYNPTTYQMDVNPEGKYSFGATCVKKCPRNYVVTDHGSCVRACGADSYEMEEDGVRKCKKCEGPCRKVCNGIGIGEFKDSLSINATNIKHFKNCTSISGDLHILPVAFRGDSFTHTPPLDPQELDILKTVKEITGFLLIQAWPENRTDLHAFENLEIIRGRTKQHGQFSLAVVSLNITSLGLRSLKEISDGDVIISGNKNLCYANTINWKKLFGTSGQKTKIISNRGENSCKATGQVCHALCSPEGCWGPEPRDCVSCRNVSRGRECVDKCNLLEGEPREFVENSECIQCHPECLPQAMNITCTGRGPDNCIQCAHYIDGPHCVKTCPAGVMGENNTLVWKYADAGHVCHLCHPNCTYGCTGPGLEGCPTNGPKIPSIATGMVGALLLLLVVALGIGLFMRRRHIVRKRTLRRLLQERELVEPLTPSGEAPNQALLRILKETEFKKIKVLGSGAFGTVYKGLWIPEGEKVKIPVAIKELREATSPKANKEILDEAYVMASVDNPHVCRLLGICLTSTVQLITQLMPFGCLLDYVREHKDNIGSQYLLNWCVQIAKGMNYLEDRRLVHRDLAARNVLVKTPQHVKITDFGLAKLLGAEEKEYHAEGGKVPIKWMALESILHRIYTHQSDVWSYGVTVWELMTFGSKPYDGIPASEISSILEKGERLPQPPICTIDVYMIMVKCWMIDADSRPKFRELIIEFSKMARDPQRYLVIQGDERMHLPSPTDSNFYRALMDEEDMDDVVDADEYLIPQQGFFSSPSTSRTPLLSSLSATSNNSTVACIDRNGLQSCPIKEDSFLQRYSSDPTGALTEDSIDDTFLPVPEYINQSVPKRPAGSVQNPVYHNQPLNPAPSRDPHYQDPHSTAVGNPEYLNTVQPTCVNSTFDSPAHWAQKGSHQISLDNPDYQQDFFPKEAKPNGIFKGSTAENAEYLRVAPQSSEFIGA

Row | Structure (SMILES) | IC50 [nM]
1 | Brc1cccc(Nc2ncnc3cc(NCCCN4CCOCC4)ncc23)c1 | 1.9
2 | OCCNc1cc2ncnc(Nc3cccc(Br)c3)c2cn1 | 0.25
3 | COc1cccc(Nc2ncnc3cc(N)ncc23)c1 | 132
4 | CC(=O)Nc1cc2ncnc(Nc3cccc(Br)c3)c2cn1 | 29.5
5 | Brc1cccc(Nc2ncnc3cc(NCCc4c[nH]cn4)ncc23)c1 | 0.912
6 | Brc1cccc(Nc2ncnc3cc(NCCCCN4CCOCC4)ncc23)c1 | 5.5
7 | Nc1cc2ncnc(Nc3ccc(Br)cc3)c2cn1 | 25.7
8 | CN1CCN(CCCNc2cc3ncnc(Nc4cccc(Br)c4)c3cn2)CC1 | 5
9 | OCCN(CCO)CCCNc1cc2ncnc(Nc3cccc(Br)c3)c2cn1 | 1.2
10 | Cc1cccc(Nc2ncnc3cc(NCCCCN(C)C)ncc23)c1 | 5.5
11 | Brc1cccc(Nc2ncnc3cc(NCCN4CCOCC4)ncc23)c1 | 3.2
12 | CN(CC(=O)O)c1cc2ncnc(Nc3cccc(Br)c3)c2cn1 | 16.2
13 | Cc1cccc(Nc2ncnc3cc(NCCCn4ccnc4)ncc23)c1 | 3.5
14 | O=S(=O)(O)CCNc1cc2ncnc(Nc3cccc(Br)c3)c2cn1 | 1.4
15 | NNc1cc2ncnc(Nc3cccc(Br)c3)c2cn1 | 7.2
16 | Cc1cccc(Nc2ncnc3cc(NCCCN4CCN(C)CC4)ncc23)c1 | 5.6
17 | CN(CCO)c1cc2ncnc(Nc3cccc(Br)c3)c2cn1 | 2.6
18 | CNc1ccc2ncnc(Nc3cccc(Br)c3)c2n1 | 3.2

Row | Structure (SMILES) | IC50 [nM]
19 | O=C(O)CNc1cc2ncnc(Nc3cccc(Br)c3)c2cn1 | 1.5
20 | CN(CC(O)CO)c1cc2ncnc(Nc3cccc(Br)c3)c2cn1 (stereo unspecified) | 3.2
21 | CN(C)CCCCNc1cc2ncnc(Nc3cccc(Br)c3)c2cn1 | 7.4
22 | Fc1ccc2c(Nc3cccc(Br)c3)ncnc2n1 | 692
23 | O=C(O)CCNc1cc2ncnc(Nc3cccc(Br)c3)c2cn1 | 0.62
24 | Brc1cccc(Nc2ncnc3cnc(NCCc4c[nH]cn4)nc23)c1 | 0.25
25 | CN(C)CCN(C)c1cc2ncnc(Nc3cccc(Br)c3)c2cn1 | 40
26 | Brc1cccc(Nc2ncnc3cnc(NCCN4CCOCC4)nc23)c1 | 0.813
27 | O=C(O)CCCNc1cc2ncnc(Nc3cccc(Br)c3)c2cn1 | 0.28
28 | OCCN(CCO)CCNc1cc2ncnc(Nc3cccc(Br)c3)c2cn1 | 9.3
29 | OCC(O)CNc1cc2ncnc(Nc3cccc(Br)c3)c2cn1 (stereo unspecified) | 0.93
30 | CN(C)CCNc1cc2ncnc(Nc3cccc(Br)c3)c2cn1 | 45.7
31 | OCCN(CCO)c1cc2ncnc(Nc3cccc(Br)c3)c2cn1 | 12
32 | COc1cc2ncnc(Nc3cccc(Br)c3)c2cn1 | 39.8
33 | CN(C)CCCCCNc1cc2ncnc(Nc3cccc(Br)c3)c2cn1 | 8.5
34 | OCN(CO)c1cc2ncnc(Nc3cccc(Br)c3)c2cn1 | 14.1
35 | CN(C)CCCNc1cc2ncnc(Nc3cccc(Br)c3)c2cn1 | 8.9
36 | Brc1cccc(Nc2ncnc3cc(NCCCn4ccnc4)ncc23)c1 | 0.512
